Holding throughout (experiment): biochemical
Parameters in all cases: DiscoverX KINOMEscan scanMAX competition binding panel, single concentration, percent of control; remaining binding: dose or concentration left out as unconfirmed
Common to all, as to details: KINOMEscan binding, percent of control; read-out: Table S4_SCANMAX REPORT - related to Fig. 1 / Percent Control

In test [1] the target is BMPR1A (Homo sapiens, UniProt P36894).
In test [2] the target is RIPK4 (Homo sapiens, UniProt P57078).
Test [3] concerns the target T1, ERK1 (Homo sapiens, UniProt P27361).
T1 construct: gene MAPK3

For test [4], the target named is PIK3CA(C420R) (Homo sapiens, UniProt P42336, C420R).
In test [5] the target is PDPK1 (Homo sapiens, UniProt O15530).
Test [6] deals with ROCK2 (Homo sapiens, UniProt O75116).
Test [7] deals with EPHB4 (Homo sapiens, UniProt P54760).
Test [8] addresses T2, ERK2 (Homo sapiens, UniProt P28482).
T2 construct: gene MAPK1

In test [9] the target is EGFR(L747-E749del, A750P) (Homo sapiens, UniProt P00533, A750P/DEL747-749).
Test [10] has as its target MARK4 (Homo sapiens, UniProt Q96L34).
Test [11] has as its target PRKCI (Homo sapiens, UniProt P41743).
The target in test [12] is FYN (Homo sapiens, UniProt P06241).
The target in test [13] is IGF1R (Homo sapiens, UniProt P08069).
The target in test [14] is PIM3 (Homo sapiens, UniProt Q86V86).
Test [15] deals with GSK3B (Homo sapiens, UniProt P49841).
Test [16] concerns the target IRAK1 (Homo sapiens, UniProt P51617).
Test [17] concerns the target ITK (Homo sapiens, UniProt Q08881).
Test [18] addresses ACVRL1 (Homo sapiens, UniProt P37023).
For test [19], the target named is SRC (Homo sapiens, UniProt P12931).

Chain of IGF1R (P08069 whole entry): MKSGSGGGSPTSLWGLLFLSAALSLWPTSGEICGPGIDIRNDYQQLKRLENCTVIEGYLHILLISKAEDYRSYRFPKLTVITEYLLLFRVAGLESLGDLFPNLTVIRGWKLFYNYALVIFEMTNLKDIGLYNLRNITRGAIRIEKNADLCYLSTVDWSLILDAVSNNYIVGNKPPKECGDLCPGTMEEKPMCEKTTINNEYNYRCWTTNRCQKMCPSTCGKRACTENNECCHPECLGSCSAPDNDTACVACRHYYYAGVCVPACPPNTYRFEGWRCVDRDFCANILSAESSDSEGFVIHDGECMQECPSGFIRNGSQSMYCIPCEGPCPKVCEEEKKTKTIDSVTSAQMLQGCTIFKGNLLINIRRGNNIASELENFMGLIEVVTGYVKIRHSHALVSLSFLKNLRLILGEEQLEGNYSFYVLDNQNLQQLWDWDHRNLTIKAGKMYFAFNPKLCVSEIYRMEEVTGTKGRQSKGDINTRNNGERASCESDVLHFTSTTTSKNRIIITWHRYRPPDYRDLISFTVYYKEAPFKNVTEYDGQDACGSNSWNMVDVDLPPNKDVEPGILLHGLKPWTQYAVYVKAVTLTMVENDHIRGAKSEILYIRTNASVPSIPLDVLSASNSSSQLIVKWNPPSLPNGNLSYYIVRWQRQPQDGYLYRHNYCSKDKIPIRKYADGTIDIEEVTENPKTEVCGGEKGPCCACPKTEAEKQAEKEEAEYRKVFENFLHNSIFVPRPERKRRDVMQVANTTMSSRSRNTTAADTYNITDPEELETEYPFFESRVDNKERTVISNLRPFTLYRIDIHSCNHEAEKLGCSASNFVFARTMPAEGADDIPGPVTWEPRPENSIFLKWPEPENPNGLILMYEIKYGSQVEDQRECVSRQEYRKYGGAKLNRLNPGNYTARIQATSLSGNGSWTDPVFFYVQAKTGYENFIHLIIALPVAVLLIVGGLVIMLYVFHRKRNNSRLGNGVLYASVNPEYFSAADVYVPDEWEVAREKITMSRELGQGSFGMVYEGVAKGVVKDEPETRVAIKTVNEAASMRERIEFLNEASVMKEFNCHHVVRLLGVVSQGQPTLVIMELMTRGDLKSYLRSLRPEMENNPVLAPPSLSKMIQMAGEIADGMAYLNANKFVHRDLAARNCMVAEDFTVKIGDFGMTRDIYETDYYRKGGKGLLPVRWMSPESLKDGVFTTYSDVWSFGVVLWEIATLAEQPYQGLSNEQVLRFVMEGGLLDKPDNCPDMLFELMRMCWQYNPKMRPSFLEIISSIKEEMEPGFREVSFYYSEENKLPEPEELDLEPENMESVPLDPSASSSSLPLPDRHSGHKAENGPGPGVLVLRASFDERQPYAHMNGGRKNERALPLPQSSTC
T2 sequence (P28482 whole entry): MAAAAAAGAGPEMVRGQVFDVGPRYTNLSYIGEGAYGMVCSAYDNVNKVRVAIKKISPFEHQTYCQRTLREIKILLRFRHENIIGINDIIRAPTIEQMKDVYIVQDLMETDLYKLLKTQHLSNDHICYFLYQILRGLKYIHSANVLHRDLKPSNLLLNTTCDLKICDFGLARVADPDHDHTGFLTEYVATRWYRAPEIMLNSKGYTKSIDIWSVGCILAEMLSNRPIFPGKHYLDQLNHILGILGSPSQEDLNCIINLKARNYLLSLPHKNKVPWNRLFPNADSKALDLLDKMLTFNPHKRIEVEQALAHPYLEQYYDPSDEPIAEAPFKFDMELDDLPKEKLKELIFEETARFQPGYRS
Chain of FYN (P06241 whole entry): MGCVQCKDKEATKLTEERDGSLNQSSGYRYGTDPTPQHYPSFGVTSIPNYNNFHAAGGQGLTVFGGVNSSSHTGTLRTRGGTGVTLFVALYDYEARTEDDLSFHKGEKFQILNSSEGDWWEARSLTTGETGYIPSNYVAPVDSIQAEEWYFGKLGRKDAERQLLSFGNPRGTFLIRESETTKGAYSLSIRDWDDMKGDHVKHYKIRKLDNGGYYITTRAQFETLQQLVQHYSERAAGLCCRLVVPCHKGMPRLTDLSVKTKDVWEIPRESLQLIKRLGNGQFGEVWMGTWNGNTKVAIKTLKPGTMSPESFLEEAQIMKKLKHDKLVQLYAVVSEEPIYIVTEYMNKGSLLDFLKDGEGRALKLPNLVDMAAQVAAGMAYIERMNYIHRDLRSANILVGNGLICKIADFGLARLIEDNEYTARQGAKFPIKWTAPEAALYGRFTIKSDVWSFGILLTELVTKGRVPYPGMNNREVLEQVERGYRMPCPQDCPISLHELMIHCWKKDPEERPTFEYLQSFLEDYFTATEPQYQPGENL
Chain of EGFR(L747-E749del, A750P) (P00533 with tags, fused parts or gaps DEL747-749/A750P): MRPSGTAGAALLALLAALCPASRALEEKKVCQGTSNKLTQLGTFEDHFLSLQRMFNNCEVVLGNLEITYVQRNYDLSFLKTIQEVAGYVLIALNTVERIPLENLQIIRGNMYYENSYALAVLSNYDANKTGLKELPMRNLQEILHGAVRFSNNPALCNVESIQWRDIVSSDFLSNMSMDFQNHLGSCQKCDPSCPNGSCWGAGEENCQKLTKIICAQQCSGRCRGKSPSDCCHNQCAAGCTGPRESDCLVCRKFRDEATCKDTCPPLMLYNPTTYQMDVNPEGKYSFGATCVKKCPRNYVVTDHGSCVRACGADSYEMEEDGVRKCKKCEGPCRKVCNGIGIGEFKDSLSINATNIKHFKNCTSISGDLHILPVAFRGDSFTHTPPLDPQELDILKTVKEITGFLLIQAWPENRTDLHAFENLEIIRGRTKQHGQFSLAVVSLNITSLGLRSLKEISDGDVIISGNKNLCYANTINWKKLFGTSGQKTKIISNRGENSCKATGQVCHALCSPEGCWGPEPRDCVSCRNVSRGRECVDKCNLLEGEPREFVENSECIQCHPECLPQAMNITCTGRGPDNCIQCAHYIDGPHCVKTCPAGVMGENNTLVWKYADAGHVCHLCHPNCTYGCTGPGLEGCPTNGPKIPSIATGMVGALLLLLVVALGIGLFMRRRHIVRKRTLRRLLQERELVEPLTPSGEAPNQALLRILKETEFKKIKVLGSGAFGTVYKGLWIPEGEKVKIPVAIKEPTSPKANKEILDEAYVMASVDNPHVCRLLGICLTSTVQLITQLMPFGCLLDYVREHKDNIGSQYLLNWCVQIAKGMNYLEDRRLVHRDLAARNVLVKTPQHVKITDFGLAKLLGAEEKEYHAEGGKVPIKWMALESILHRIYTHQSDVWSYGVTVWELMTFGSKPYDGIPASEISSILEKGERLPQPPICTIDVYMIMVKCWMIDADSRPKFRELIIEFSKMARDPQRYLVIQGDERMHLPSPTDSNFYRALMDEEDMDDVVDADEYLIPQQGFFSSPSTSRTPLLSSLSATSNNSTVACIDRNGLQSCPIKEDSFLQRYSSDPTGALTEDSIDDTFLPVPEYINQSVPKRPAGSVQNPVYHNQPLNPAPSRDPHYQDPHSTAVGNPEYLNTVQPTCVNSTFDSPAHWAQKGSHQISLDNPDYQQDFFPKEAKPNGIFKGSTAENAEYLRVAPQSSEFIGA
Chain of PIK3CA(C420R) (P42336 whole entry C420R): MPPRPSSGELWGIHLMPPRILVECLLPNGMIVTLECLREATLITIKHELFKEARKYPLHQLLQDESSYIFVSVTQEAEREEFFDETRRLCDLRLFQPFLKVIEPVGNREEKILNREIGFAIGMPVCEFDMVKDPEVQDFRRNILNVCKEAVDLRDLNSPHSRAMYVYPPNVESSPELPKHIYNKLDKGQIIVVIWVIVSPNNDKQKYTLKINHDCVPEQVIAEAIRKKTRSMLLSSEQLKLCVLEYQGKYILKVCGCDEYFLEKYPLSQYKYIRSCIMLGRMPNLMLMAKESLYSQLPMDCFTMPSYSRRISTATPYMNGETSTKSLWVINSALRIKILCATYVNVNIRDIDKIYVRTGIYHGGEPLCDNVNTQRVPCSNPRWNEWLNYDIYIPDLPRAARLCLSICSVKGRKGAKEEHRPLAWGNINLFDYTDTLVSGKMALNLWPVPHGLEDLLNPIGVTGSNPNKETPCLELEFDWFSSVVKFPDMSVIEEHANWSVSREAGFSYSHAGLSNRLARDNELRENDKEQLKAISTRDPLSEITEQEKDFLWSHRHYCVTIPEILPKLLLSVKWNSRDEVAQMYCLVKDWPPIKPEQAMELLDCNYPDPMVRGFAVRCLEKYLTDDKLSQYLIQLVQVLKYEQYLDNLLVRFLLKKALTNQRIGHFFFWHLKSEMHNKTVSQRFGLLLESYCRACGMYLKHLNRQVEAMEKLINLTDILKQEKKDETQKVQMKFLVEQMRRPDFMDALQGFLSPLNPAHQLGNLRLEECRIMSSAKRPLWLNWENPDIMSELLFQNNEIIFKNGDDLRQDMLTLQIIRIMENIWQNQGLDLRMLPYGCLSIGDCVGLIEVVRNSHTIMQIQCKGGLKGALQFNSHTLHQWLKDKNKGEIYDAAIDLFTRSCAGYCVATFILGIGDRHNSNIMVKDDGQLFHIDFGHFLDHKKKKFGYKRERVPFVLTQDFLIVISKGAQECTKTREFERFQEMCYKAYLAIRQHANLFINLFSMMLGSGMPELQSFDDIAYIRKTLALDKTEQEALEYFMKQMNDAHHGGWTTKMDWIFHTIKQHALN

`c1ccc2c(c1)Sc1ccccc1N2CCN1CCOCC1` [J54]: the remaining binding in test [1] amounted to 72%; in test [2] it was 100%; in test [3], 100%; in [4] it was 88%; in test [5] it was 92%; in test [6] it was 98%. Moreover, the remaining binding was determined as 100% in test [7]; 97% in test [8]; 90% in test [9]; 100% in test [10]; 98% in test [11]; 100% in test [12]. Besides, the remaining binding was 56% in test [13]; 47% in test [14]; 100% in test [15]; 100% in test [16]; 100% in test [17]; 100% in test [18]. Further, in test [19], the remaining binding was 96%.

These data come from paper PMC7486443, “Generation of Phenothiazine with Potent Anti-TLK1 Activity for Prostate Cancer Therapy” (iScience, 2020).
